These results are taken from PubChem BioAssay AID220 (DTP/NCI, 2004).

In the assay the test system is CD8F1 mice, subcutaneous mammary adenocarcinoma, T/C%. Kind of assay: NCI In Vivo Anticancer Drug Screen. Data for tumor model Mammary Adenocarcinoma CD8F1 (subcutaneous) in CD8F1. Particulars: higher = larger tumour. In outline: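 Antitumor activity is assessed in transplantable-tumor mice by comparing the treated group with a vehicle-treated control group. Survival or tumor size serves as the measure, reported as T divided by C.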

Where [1] appears, read: endpoint: median tumor weight change, dose: 250.0 mg/kg/injection, schedule: Q01DX001 (ip), vehicle: saline with Tween-80.
Where [2] appears, read: endpoint: median tumor weight change, dose: 500.0 mg/kg/injection, schedule: Q01DX001 (ip), vehicle: saline with Tween-80.

The structures appear in SMILES notation. Several values for one entry are separate records, joined by “and”; a condition that tells them apart may be missing. Equal values may be shown once. Records with an inconclusive call do not appear. Residues, ends and D or L forms follow the SMILES beside them. *: point of attachment. Trt = c1ccc(C(c2ccccc2)(c2ccccc2)*)cc1; Cbz = O=C(OCc1ccccc1)*

For the compound `Cc1c(N)nc([C@H](CC(N)=O)NC[C@H](N)C(N)=O)nc1C(=O)N[C@H](C(=O)N[C@H](C)[C@@H](O)[C@H](C)C(=O)N[C@H](C(=O)NCCc1nc(-c2nc(C(=O)NCCC[S+](C)C)cs2)cs1)[C@@H](C)O)C(OC1OC(CO)C(O)C(O)C1OC1OC(CO)C(O)C(OC(N)=O)C1O)c1cnc[nH]1` (stereo partly drawn), the T/C (endpoint: median tumor weight (est.), dose: 1.0 mg/kg/injection, schedule: Q07DX006 (ip), vehicle: saline) is 93 % of control; the T/C (endpoint: median tumor weight (est.), dose: 2.0 mg/kg/injection, schedule: Q07DX005 (ip), vehicle: saline) was 25 % of control; the T/C (endpoint: median tumor weight (est.), dose: 2.0 mg/kg/injection, schedule: Q07DX006 (ip), vehicle: saline) was 100 % of control; the T/C (endpoint: median tumor weight (est.), dose: 8.0 mg/kg/injection, schedule: Q07DX006 (ip), vehicle: saline) is 55 % of control; the T/C (endpoint: median tumor weight (est.), dose: 16.0 mg/kg/injection, schedule: Q07DX005 (ip), vehicle: saline) is 10 % of control and 13 % of control and 23 % of control; the T/C (endpoint: median tumor weight (est.), dose: 16.0 mg/kg/injection, schedule: Q07DX006 (ip), vehicle: saline) was 61 % of control. In addition, the T/C is, setting by setting: (endpoint: median tumor weight (est.), dose: 32.0 mg/kg/injection, schedule: Q07DX005 (ip), vehicle: saline) 6 % of control and 7 % of control; (endpoint: median tumor weight (est.), dose: 32.0 mg/kg/injection, schedule: Q07DX006 (ip), vehicle: saline) 8 % of control; (endpoint: median tumor weight (est.), dose: 64.0 mg/kg/injection, schedule: Q07DX005 (ip), vehicle: saline) 2 % of control; (endpoint: median tumor weight change, dose: 4.0 mg/kg/injection, schedule: Q01DX001 (ip), vehicle: saline) 124 % of control.

As to `CC[N+](CC)(CC)CC`, the T/C (endpoint: median tumor weight (est.), dose: 0.78 mg/kg/injection, schedule: Q07DX005 (ip), vehicle: saline with Tween-80) was 96 % of control; the T/C (endpoint: median tumor weight (est.), dose: 1.56 mg/kg/injection, schedule: Q07DX005 (ip), vehicle: saline with Tween-80) is 71 % of control and 84 % of control; the T/C (endpoint: median tumor weight (est.), dose: 3.12 mg/kg/injection, schedule: Q07DX005 (ip), vehicle: saline with Tween-80) is 21 % of control and 38 % of control; the T/C (endpoint: median tumor weight (est.), dose: 6.25 mg/kg/injection, schedule: Q07DX005 (ip), vehicle: saline with Tween-80) was 10 % of control and 27 % of control; the T/C (endpoint: median tumor weight change, dose: 5.0 mg/kg/injection, schedule: Q01DX001 (ip), vehicle: saline with Tween-80) is 38 % of control; the T/C (endpoint: median tumor weight change, dose: 10.0 mg/kg/injection, schedule: Q01DX001 (ip), vehicle: saline with Tween-80) is 20 % of control. For the same compound, the T/C was 54 % of control and 61 % of control (endpoint: median tumor weight change, dose: 12.0 mg/kg/injection, schedule: Q01DX001 (ip), vehicle: saline with Tween-80); 86 % of control (endpoint: median tumor weight change, dose: 15.0 mg/kg/injection, schedule: Q01DX001 (ip), vehicle: saline with Tween-80); 22 % of control (endpoint: median tumor weight change, dose: 20.0 mg/kg/injection, schedule: Q01DX001 (ip), vehicle: saline with Tween-80); 15 % of control (endpoint: median tumor weight change, dose: 30.0 mg/kg/injection, schedule: Q01DX001 (ip), vehicle: saline with Tween-80); 8 % of control (endpoint: median tumor weight change, dose: 40.0 mg/kg/injection, schedule: Q01DX001 (ip), vehicle: saline with Tween-80).

Take `CCN(CC)c1ccc2[nH]c3c(C(N)=O)cc(=O)c(=O)c=3oc2c1`: the T/C was 92 % of control (endpoint: median tumor weight change, dose: 62.5 mg/kg/injection, schedule: Q01DX001 (ip), vehicle: saline with Tween-80); 121 % of control under setting [1]; 28 % of control under setting [2].

Take `COC(=O)C(CSC(c1ccccc1)(c1ccccc1)c1ccccc1)NC(=O)C(CC(N)=O)NC(=O)OCc1ccccc1` (stereo not drawn) (Cbz-Asn-Cys(Trt)-OMe; configuration not given here): the T/C was 101 % of control and 116 % of control (endpoint: median tumor weight change, dose: 125.0 mg/kg/injection, schedule: Q01DX001 (ip), vehicle: distilled water + Tween-80); 50 % of control (endpoint: median tumor weight change, dose: 500.0 mg/kg/injection, schedule: Q01DX001 (ip), vehicle: distilled water + Tween-80); 40 % of control and 57 % of control (endpoint: median tumor weight change, dose: 2000.0 mg/kg/injection, schedule: Q01DX001 (ip), vehicle: distilled water + Tween-80).

As for `CCC1=C[C@H]2CN(CCc3c([nH]c4ccccc34)[C@@](C(=O)OC)(c3cc4c(cc3OC)N(C)[C@H]3[C@@](O)(C(=O)NC)[C@H](OC(C)=O)[C@]5(CC)C=CCN6CC[C@]43[C@@H]65)C2)C1`, the T/C is, setting by setting: (endpoint: median tumor weight (est.), dose: 0.03 mg/kg/injection, schedule: Q07DX005 (ip), vehicle: water) 93 % of control; (endpoint: median tumor weight (est.), dose: 0.06 mg/kg/injection, schedule: Q07DX005 (ip), vehicle: water) 98 % of control; (endpoint: median tumor weight (est.), dose: 0.12 mg/kg/injection, schedule: Q07DX005 (ip), vehicle: water) 91 % of control; (endpoint: median tumor weight (est.), dose: 0.5 mg/kg/injection, schedule: Q07DX005 (ip), vehicle: saline) 86 % of control; (endpoint: median tumor weight (est.), dose: 0.5 mg/kg/injection, schedule: Q07DX005 (ip), vehicle: water) 73 % of control; (endpoint: median tumor weight (est.), dose: 1.0 mg/kg/injection, schedule: Q07DX005 (ip), vehicle: saline) 46 % of control. Besides, the T/C runs as follows: (endpoint: median tumor weight (est.), dose: 1.0 mg/kg/injection, schedule: Q07DX005 (ip), vehicle: water) 57 % of control; (endpoint: median tumor weight (est.), dose: 2.0 mg/kg/injection, schedule: Q07DX005 (ip), vehicle: water) 3 % of control.

For the compound `N#C[C@H](OC1OC(COC2OC(CO)C(O)C(O)C2O)C(O)C(O)C1O)c1ccccc1` (stereo partly drawn), the T/C reads like this: (endpoint: median tumor weight (est.), dose: 50.0 mg/kg/injection, schedule: Q07DX005 (ip), vehicle: suspension in saline) 75 % of control; (endpoint: median tumor weight (est.), dose: 100.0 mg/kg/injection, schedule: Q07DX005 (ip), vehicle: saline) 76 % of control; (endpoint: median tumor weight (est.), dose: 100.0 mg/kg/injection, schedule: Q07DX005 (ip), vehicle: suspension in saline) 77 % of control; (endpoint: median tumor weight (est.), dose: 200.0 mg/kg/injection, schedule: Q07DX005 (ip), vehicle: saline) 95 % of control; (endpoint: median tumor weight (est.), dose: 200.0 mg/kg/injection, schedule: Q07DX005 (ip), vehicle: suspension in saline) 171 % of control; (endpoint: median tumor weight (est.), dose: 400.0 mg/kg/injection, schedule: Q07DX005 (ip), vehicle: saline) 83 % of control. The T/C was 100 % of control (endpoint: median tumor weight (est.), dose: 400.0 mg/kg/injection, schedule: Q07DX005 (ip), vehicle: suspension in saline); 96 % of control (endpoint: median tumor weight (est.), dose: 800.0 mg/kg/injection, schedule: Q07DX005 (ip), vehicle: saline); 41 % of control (endpoint: median tumor weight (est.), dose: 1600.0 mg/kg/injection, schedule: Q07DX005 (ip), vehicle: saline); 413 % of control (endpoint: median tumor weight (est.), dose: 1600.0 mg/kg/injection, schedule: Q07DX005 (ip), vehicle: suspension in saline).

Take `COc1ccc(C(=O)c2no[n+]([O-])c2C(=O)c2ccc(OC)cc2)cc1`: the T/C under setting [2] is 84 % of control.

`O=C1N[C@H]2[C@H](CS[C@H]2CCCCC(=O)N(CCP(c2ccccc2)c2ccccc2)CCP(c2ccccc2)c2ccccc2)N1`: the T/C is, setting by setting: (endpoint: median tumor weight change, dose: 125.0 mg/kg/injection, schedule: Q01DX001 (ip), vehicle: Klucel (hydroxypropylcellulose) (HPC)) 97 % of control; (endpoint: median tumor weight change, dose: 250.0 mg/kg/injection, schedule: Q01DX001 (ip), vehicle: Klucel (hydroxypropylcellulose) (HPC)) 70 % of control; (endpoint: median tumor weight change, dose: 500.0 mg/kg/injection, schedule: Q01DX001 (ip), vehicle: Klucel (hydroxypropylcellulose) (HPC)) 85 % of control; (endpoint: median tumor weight change, dose: 1000.0 mg/kg/injection, schedule: Q01DX001 (ip), vehicle: Klucel (hydroxypropylcellulose) (HPC)) 55 % of control; (endpoint: median tumor weight change, dose: 2000.0 mg/kg/injection, schedule: Q01DX001 (ip), vehicle: Klucel (hydroxypropylcellulose) (HPC)) 56 % of control.

`Clc1ccc2nnnn2n1`: the T/C (endpoint: median tumor weight change, dose: 125.0 mg/kg/injection, schedule: Q01DX001 (ip), vehicle: saline with Tween-80) is 49 % of control and the T/C under setting [1] is 61 % of control.
